Experimental data reported in patent US8167991B2, “Trisazo compound, ink composition, recording method, and colored article” (Nippon Kayaku Kabushiki Kaisha, priority 2006, dated 2012).
Like-named read-outs stand apart in the source and are kept apart here.

Test: Solubility of the dye compound
Type: physicochemical
[1] = water, read-out: solubility in water
[2] = compound obtained as a sodium salt, read-out: solubility

Row | SMILES | solubility [1] | solubility [2]
1 | Cc1cc(N=Nc2c(S(=O)(=O)O)cc3c(S(=O)(=O)O)c(N=Nc4c(S(=O)(=O)O)cc5c(S(=O)(=O)O)c(N=Nc6cc(S(=O)(=O)O)c7cc(S(=O)(=O)O)c(N=Nc8ccc([N+](=O)[O-])cc8S(=O)(=O)O)c(O)c7c6N)ccc5c4O)ccc3c2O)c(OCCCS(=O)(=O)O)cc1N=Nc1cc(C(=O)O)cc(C(=O)O)c1 [formula (II-61)] | ≥ 100 mg/mL | –
2 | CS(=O)(=O)O.Cc1cc(N=Nc2c(C)c(C(N)=O)c3nc4ccccc4n3c2O)c(OCCCS(=O)(=O)O)cc1N=Nc1cc(C)c(N=Nc2ccc(S(=O)(=O)O)cc2C(=O)O)cc1OCCCS(=O)(=O)O [Compound No. 7] | – | ≥ 100 mg/mL
3 | CS(=O)(=O)O.Cc1cc(N=Nc2c(-c3ccccc3)c(C#N)c3nc4ccccc4n3c2O)c(OCCCS(=O)(=O)O)cc1N=Nc1ccc(N=Nc2ccc(S(=O)(=O)O)cc2)cc1S(=O)(=O)O [Compound No. 4] | – | ≥ 100 mg/mL
4 | CS(=O)(=O)O.Cc1cc(N=Nc2c(C)c(C#N)c3nc4ccccc4n3c2O)c(OCCCS(=O)(=O)O)cc1N=Nc1cc(C)c(N=Nc2ccc(S(=O)(=O)O)cc2C(=O)O)cc1OCCCS(=O)(=O)O [Compound No. 6] | – | ≥ 100 mg/mL
5 | CS(=O)(=O)O.Cc1cc(N=Nc2c(C)c(C#N)c3nc4ccccc4n3c2O)c(OCCCCS(=O)(=O)O)cc1N=Nc1ccc(N=Nc2ccc(S(=O)(=O)O)cc2)cc1S(=O)(=O)O [Compound No. 20] | – | ≥ 100 mg/mL
6 | CCCc1c(N=Nc2cc(C)c(N=Nc3ccc(N=Nc4ccc(S(=O)(=O)O)cc4)cc3S(=O)(=O)O)cc2OCCCS(=O)(=O)O)c(O)n2c(nc3ccccc32)c1C#N.CS(=O)(=O)O [Compound No. 3] | – | ≥ 100 mg/mL

Now from value to compound:

Row | solubility [1] | solubility [2] | SMILES
7 | ≥ 100 mg/mL | – | Cc1cc(N=Nc2c(S(=O)(=O)O)cc3c(S(=O)(=O)O)c(N=Nc4c(S(=O)(=O)O)cc5c(S(=O)(=O)O)c(N=Nc6cc(S(=O)(=O)O)c7cc(S(=O)(=O)O)c(N=Nc8ccc([N+](=O)[O-])cc8S(=O)(=O)O)c(O)c7c6N)ccc5c4O)ccc3c2O)c(OCCCS(=O)(=O)O)cc1N=Nc1cc(S(=O)(=O)O)cc2cc(S(=O)(=O)O)cc(O)c12 [formula (II-59)]
8 | ≥ 100 mg/mL | – | Nc1c(N=Nc2ccc3c(O)c(N=Nc4ccc5c(O)c(N=Nc6ccc(N=Nc7ccc(S(=O)(=O)O)cc7)cc6S(=O)(=O)O)c(S(=O)(=O)O)cc5c4S(=O)(=O)O)c(S(=O)(=O)O)cc3c2S(=O)(=O)O)cc(S(=O)(=O)O)c2cc(S(=O)(=O)O)c(N=Nc3ccc(S(=O)(=O)O)cc3[N+](=O)[O-])c(O)c12 [formula (II-57)]
9 | ≥ 100 mg/mL | – | Nc1c(N=Nc2ccc3c(O)c(N=Nc4ccc5c(O)c(N=Nc6ccc(N=Nc7ccc(S(=O)(=O)O)cc7)cc6S(=O)(=O)O)c(S(=O)(=O)O)cc5c4S(=O)(=O)O)c(S(=O)(=O)O)cc3c2S(=O)(=O)O)cc(S(=O)(=O)O)c2cc(S(=O)(=O)O)c(N=Nc3ccc([N+](=O)[O-])cc3S(=O)(=O)O)c(O)c12 [formula (II-56)]
10 | – | ≥ 100 mg/mL | Cc1cc(N=Nc2c(S(=O)(=O)O)cc3c(S(=O)(=O)O)c(N=Nc4cc(S(=O)(=O)O)c5cc(S(=O)(=O)O)c(N=Nc6ccc([N+](=O)[O-])cc6S(=O)(=O)O)c(O)c5c4N)ccc3c2O)c(OCCCS(=O)(=O)O)cc1N=Nc1cc(C)c(N=Nc2ccc(S(=O)(=O)O)c3cc(S(=O)(=O)O)cc(O)c23)cc1OCCCS(=O)(=O)O [formula (75)]
